US7105558B2, “Gastrin and cholecystokinin receptor lignads (iv)” (The James Black Foundation Limited, priority 2000, dated 2006)

target: T1, gastrin (CCK2) receptors (Rattus norvegicus, UniProt P30553); assay: immature rat stomach assay for gastrin (CCK2) antagonist activity (pentagastrin-stimulated acid secretion); settings: isolated immature rat stomach, antagonism of pentagastrin dose-response curves, 60 min incubation; tested as N-methyl D-glucamine salts
T1 construct: The stomach was excised and flushed with ca. 1 ml of unbuffered physiological saline solution; from tissue; host or cells: isolated whole stomach of immature rats (33-50 g, ca. 21 days old)
T1 sequence (P30553 1-452): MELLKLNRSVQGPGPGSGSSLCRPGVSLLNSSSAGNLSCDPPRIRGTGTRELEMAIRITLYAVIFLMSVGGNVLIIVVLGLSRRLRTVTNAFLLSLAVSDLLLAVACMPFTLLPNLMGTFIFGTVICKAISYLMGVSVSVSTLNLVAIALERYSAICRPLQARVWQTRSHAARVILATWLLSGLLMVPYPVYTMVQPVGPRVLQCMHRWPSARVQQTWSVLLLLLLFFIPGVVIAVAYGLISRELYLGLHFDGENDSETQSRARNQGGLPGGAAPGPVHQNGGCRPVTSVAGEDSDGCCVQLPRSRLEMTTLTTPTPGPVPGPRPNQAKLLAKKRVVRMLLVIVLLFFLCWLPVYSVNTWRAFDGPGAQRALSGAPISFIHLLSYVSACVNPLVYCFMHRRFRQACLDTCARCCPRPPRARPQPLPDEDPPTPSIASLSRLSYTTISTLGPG
Procedure: The compounds of the examples were tested for gastrin (CCK2) antagonist activity in an immature rat stomach assay. The procedure was as follows:
The oesophagus of immature rats (33-50 g, ca. 21 days old) was ligated at the level of the cardiac sphincter and the duodenal sphincter was cannulated. The stomach was excised and flushed with ca. 1 ml of unbuffered physiological saline solution. The fundus was punctured and cannulated. A further 4-5 ml of unbuffered solution was flushed through the stomach to ensure the preparation was not leaking. The stomach was lowered into a jacketed organ bath containing 40 ml of buffered solution containing 3×10^−8 M 5-methylfurmethide, maintained at 37° and gassed vigorously with 95% O2/5% CO2. The stomach was continuously perfused at a rate of 1 ml min^−1 with unbuffered solution gassed with 100% O2 with the perfusate passing over an internally referenced pH-electrode fixed 12 cm above the stomach.
After 120 min of stabilisation the drugs were added directly to the serosal solution in the organ bath and after a further 60 min cumulative pentagastrin dose-response curves were started. Changes in acid secretion were monitored and the curves analysed according to Black et al, Br. J. Pharmacol., 1985, 86, 581.

Row | SMILES | Rat stomach pKB
1 | Nc1ccccc1-n1nc(COC23CC4CC(CC(C4)C2)C3)c(C(=O)Nc2cccc(C(=O)O)c2)n1 [Example 27] | 6.67 ± 0.17

same assay, conditions: isolated immature rat stomach, antagonism of pentagastrin dose-response curves, 60 min incubation; tested as N-methyl D-glucamine salts; read-out: Rat stomach pKB (converted)

Row | SMILES | Kb [nM]
2 | Cc1ccc(-n2nc(COC34CC5CC(CC(C5)C3)C4)c(C(=O)Nc3cccc(C(=O)O)c3)n2)c(C)c1 [Example 25, 3-[[5-(Adamantan-1-yloxymethyl)-2-(2,4-dimethyl-phenyl)-2H-[1,2,3]triazole-4-carbonyl]-amino]-benzoic acid] | 316
3 | O=C(O)c1cccc(NC(=O)c2nn(-c3ccccc3[N+](=O)[O-])nc2COC23CC4CC(CC(C4)C2)C3)c1 [Example 26, 3-[[5-(Adamantan-1-yloxymethyl)-2-(2-nitro-phenyl)-2H-[1,2,3]triazole-4-carbonyl]-amino]-benzoic acid] | 380
4 | O=C(O)c1cccc(NC(=O)c2nn(-c3c(Cl)cccc3Cl)nc2COc2ccccc2)c1 [Example 28, 3-{[2-(2,6-Dichloro-phenyl)-5-phenoxymethyl-2H-[1,2,3]triazole-4-carbonyl]-amino}-benzoic acid] | 1230
5 | O=C(O)c1cccc(NC(=O)c2nn(-c3c(Cl)cccc3Cl)nc2COC2CCCCCC2)c1 [Example 29, 3-{[5-Cycloheptyloxymethyl-2-(2,6-dichloro-phenyl)-2H-[1,2,3]triazole-4-carbonyl]-amino}-benzoic acid] | 97.7

Continued, values first:

Row | Kb [nM] | SMILES
6 | 275 | O=C(O)c1cccc(NC(=O)c2nn(-c3c(Cl)cccc3Cl)nc2COC2CCCCC2)c1 [Example 30, 3-{[5-Cyclohexyloxymethyl-2-(2,6-dichloro-phenyl)-2H-[1,2,3]triazole-4-carbonyl]-amino}-benzoic acid]
7 | 2820 | O=C(O)Cc1cccc(NC(=O)c2nn(-c3c(Cl)cccc3Cl)nc2COC23CC4CC(CC(C4)C2)C3)c1 [Example 31, (3-{[5-(Adamantan-1-yloxymethyl)-2-(2,6-dichloro-phenyl)-2H-[1,2,3]triazole-4-carbonyl]-amino}-phenyl)acetic acid]
8 | 3720 | O=C(O)c1cccc(NC(=O)c2c(COC34CC5CC(CC(C5)C3)C4)nnn2C2CCCCCC2)c1 [Example 32, 3-{[5-(Adamantan-1-yloxymethyl)-3-cycloheptyl-3H-[1,2,3]triazole-4-carbonyl]-amino}-benzoic acid]
